How the values were obtained:
Assay in all cases: PathHunter β-arrestin GpcrMAX assay
Type in all cases: cell-based
AGTRL1 = AGTRL1 (Homo sapiens, UniProt P35414)
Description: (§1) GpcrMAX panel biosensor assays were used to characterize taveuniamide F (4, 20 µM) (agonist and antagonist mode). The experiments were carried out by DiscoveRx Corporation (Fremont, CA, USA) as described before, using PathHunter β-arrestin enzyme fragment complementation (EFC) technology.

HTR1E = target: T1, HTR1E (Homo sapiens, UniProt P28566)
T1 construct: purchased DiscoveRx (Eurofins) gpcrMAX PathHunter β-arrestin panel
Description: as §1

NMU1R = target: T2, NMU1R (Homo sapiens, UniProt Q9HB89)
T2 construct: purchased DiscoveRx (Eurofins) gpcrMAX PathHunter β-arrestin panel
Description: as §1

FFAR1 = target: T3, FFAR1 (Homo sapiens, UniProt O14842)
T3 construct: purchased DiscoveRx (Eurofins) gpcrMAX PathHunter β-arrestin panel
Description: as §1

CHRM3 = target: T4, CHRM3 (Homo sapiens, UniProt P20309)
T4 construct: purchased DiscoveRx (Eurofins) gpcrMAX PathHunter β-arrestin panel
Description: as §1

EDG6 = target: T5, EDG6 (Homo sapiens, UniProt O95977)
T5 construct: purchased DiscoveRx (Eurofins) gpcrMAX PathHunter β-arrestin panel
Description: as §1

PTGER4 = target: T6, PTGER4 (Homo sapiens, UniProt P35408)
T6 construct: purchased DiscoveRx (Eurofins) gpcrMAX PathHunter β-arrestin panel
Description: as §1

C5aR1 = C5aR1 (Homo sapiens, UniProt P21730)
Description: as §1

NMBR = target: T7, NMBR (Homo sapiens, UniProt P28336)
T7 construct: purchased DiscoveRx (Eurofins) gpcrMAX PathHunter β-arrestin panel
Description: as §1

PTGFR = target: T8, PTGFR (Homo sapiens, UniProt P43088)
T8 construct: purchased DiscoveRx (Eurofins) gpcrMAX PathHunter β-arrestin panel
Description: as §1

PRLHR = target: T9, PRLHR (Homo sapiens, UniProt P49683)
T9 construct: purchased DiscoveRx (Eurofins) gpcrMAX PathHunter β-arrestin panel
Description: as §1

CXCR4 = target: T10, CXCR4 (Homo sapiens, UniProt P61073)
T10 construct: purchased DiscoveRx (Eurofins) gpcrMAX PathHunter β-arrestin panel
Description: as §1

PTAFR = target: T11, PTAFR (Homo sapiens, UniProt P25105)
T11 construct: purchased DiscoveRx (Eurofins) gpcrMAX PathHunter β-arrestin panel
Description: as §1

OXTR = target: T12, OXTR (Homo sapiens, UniProt P30559)
T12 construct: purchased DiscoveRx (Eurofins) gpcrMAX PathHunter β-arrestin panel
Description: as §1

AVPR1A = AVPR1A (Homo sapiens, UniProt P37288)
Description: as §1

CHRM2 = target: T13, CHRM2 (Homo sapiens, UniProt P08172)
T13 construct: purchased DiscoveRx (Eurofins) gpcrMAX PathHunter β-arrestin panel
Description: as §1

HRH1 = target: T14, HRH1 (Homo sapiens, UniProt P35367)
T14 construct: purchased DiscoveRx (Eurofins) gpcrMAX PathHunter β-arrestin panel
Description: as §1

CHRM1 = target: T15, CHRM1 (Homo sapiens, UniProt P11229)
T15 construct: purchased DiscoveRx (Eurofins) gpcrMAX PathHunter β-arrestin panel
Description: as §1

CCR2 = target: T16, CCR2 (Homo sapiens, UniProt P41597)
T16 construct: purchased DiscoveRx (Eurofins) gpcrMAX PathHunter β-arrestin panel
Description: as §1

MC3R = target: T17, MC3R (Homo sapiens, UniProt P41968)
T17 construct: purchased DiscoveRx (Eurofins) gpcrMAX PathHunter β-arrestin panel
Description: as §1

MC1R = target: T18, MC1R (Homo sapiens, UniProt Q01726)
T18 construct: purchased DiscoveRx (Eurofins) gpcrMAX PathHunter β-arrestin panel
Description: as §1

CALCRL-RAMP1 = CALCRL-RAMP1 (Homo sapiens, UniProt O60894+Q16602)
Description: as §1

HTR1F = target: T19, HTR1F (Homo sapiens, UniProt P30939)
T19 construct: purchased DiscoveRx (Eurofins) gpcrMAX PathHunter β-arrestin panel
Description: as §1

SCTR = target: T20, SCTR (Homo sapiens, UniProt P47872)
T20 construct: purchased DiscoveRx (Eurofins) gpcrMAX PathHunter β-arrestin panel
Description: as §1

HRH2 = target: T21, HRH2 (Homo sapiens, UniProt P25021)
T21 construct: purchased DiscoveRx (Eurofins) gpcrMAX PathHunter β-arrestin panel
Description: as §1

EDNRB = target: T22, EDNRB (Homo sapiens, UniProt P24530)
T22 construct: purchased DiscoveRx (Eurofins) gpcrMAX PathHunter β-arrestin panel
Description: as §1

CCR1 = target: T23, CCR1 (Homo sapiens, UniProt P32246)
T23 construct: purchased DiscoveRx (Eurofins) gpcrMAX PathHunter β-arrestin panel
Description: as §1

P2RY2 = target: T24, P2RY2 (Homo sapiens, UniProt P41231)
T24 construct: purchased DiscoveRx (Eurofins) gpcrMAX PathHunter β-arrestin panel
Description: as §1

P2RY6 = target: T25, P2RY6 (Homo sapiens, UniProt Q15077)
T25 construct: purchased DiscoveRx (Eurofins) gpcrMAX PathHunter β-arrestin panel
Description: as §1

EDG1 = target: T26, EDG1 (Homo sapiens, UniProt P21453)
T26 construct: purchased DiscoveRx (Eurofins) gpcrMAX PathHunter β-arrestin panel
Description: as §1

BRS3 = BRS3 (Homo sapiens, UniProt P32247)
Description: as §1

CALCRL-RAMP2 = CALCRL-RAMP2 (Homo sapiens, UniProt O60895+Q16602)
Description: as §1

CXCR6 = target: T27, CXCR6 (Homo sapiens, UniProt O00574)
T27 construct: purchased DiscoveRx (Eurofins) gpcrMAX PathHunter β-arrestin panel
Description: as §1

TACR2 = target: T28, TACR2 (Homo sapiens, UniProt P21452)
T28 construct: purchased DiscoveRx (Eurofins) gpcrMAX PathHunter β-arrestin panel
Description: as §1

OXER1 = target: T29, OXER1 (Homo sapiens, UniProt Q8TDS5)
T29 construct: purchased DiscoveRx (Eurofins) gpcrMAX PathHunter β-arrestin panel
Description: as §1

CHRM5 = target: T30, CHRM5 (Homo sapiens, UniProt P08912)
T30 construct: purchased DiscoveRx (Eurofins) gpcrMAX PathHunter β-arrestin panel
Description: as §1

GALR1 = target: T31, GALR1 (Homo sapiens, UniProt P47211)
T31 construct: purchased DiscoveRx (Eurofins) gpcrMAX PathHunter β-arrestin panel
Description: as §1

EDNRA = target: T32, EDNRA (Homo sapiens, UniProt P25101)
T32 construct: purchased DiscoveRx (Eurofins) gpcrMAX PathHunter β-arrestin panel
Description: as §1

HTR1B = target: T33, HTR1B (Homo sapiens, UniProt P28222)
T33 construct: purchased DiscoveRx (Eurofins) gpcrMAX PathHunter β-arrestin panel
Description: as §1

CALCR-RAMP3 = CALCR-RAMP3 (Homo sapiens, UniProt O60896+P30988)
Description: as §1

CCR4 = target: T34, CCR4 (Homo sapiens, UniProt P51679)
T34 construct: purchased DiscoveRx (Eurofins) gpcrMAX PathHunter β-arrestin panel
Description: as §1

CXCR1 = target: T35, CXCR1 (Homo sapiens, UniProt P25024)
T35 construct: purchased DiscoveRx (Eurofins) gpcrMAX PathHunter β-arrestin panel
Description: as §1

T6 sequence (P35408 whole entry): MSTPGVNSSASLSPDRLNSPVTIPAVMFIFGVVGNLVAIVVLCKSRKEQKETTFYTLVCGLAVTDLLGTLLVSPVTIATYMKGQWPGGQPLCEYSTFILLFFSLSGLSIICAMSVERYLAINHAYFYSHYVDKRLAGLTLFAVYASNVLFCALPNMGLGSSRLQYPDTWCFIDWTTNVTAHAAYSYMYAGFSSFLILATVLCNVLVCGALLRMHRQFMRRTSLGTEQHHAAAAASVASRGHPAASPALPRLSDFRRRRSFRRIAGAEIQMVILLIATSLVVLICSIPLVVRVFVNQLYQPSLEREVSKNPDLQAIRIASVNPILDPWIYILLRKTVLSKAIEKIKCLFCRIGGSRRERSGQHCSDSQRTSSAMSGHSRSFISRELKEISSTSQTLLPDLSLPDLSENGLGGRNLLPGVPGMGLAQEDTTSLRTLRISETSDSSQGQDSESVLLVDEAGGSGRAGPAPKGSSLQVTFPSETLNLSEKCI
T7 sequence (P28336 whole entry): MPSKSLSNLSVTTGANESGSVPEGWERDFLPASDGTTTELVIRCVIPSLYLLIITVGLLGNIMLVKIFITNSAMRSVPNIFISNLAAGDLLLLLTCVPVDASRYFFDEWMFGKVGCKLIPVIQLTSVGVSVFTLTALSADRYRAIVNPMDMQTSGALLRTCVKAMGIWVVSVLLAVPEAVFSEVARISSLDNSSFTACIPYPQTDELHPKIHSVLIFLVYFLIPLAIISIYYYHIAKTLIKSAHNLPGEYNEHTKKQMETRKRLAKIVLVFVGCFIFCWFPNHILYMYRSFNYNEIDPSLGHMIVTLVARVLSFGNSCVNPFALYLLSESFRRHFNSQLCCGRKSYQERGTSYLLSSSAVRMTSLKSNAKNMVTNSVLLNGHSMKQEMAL
T35 sequence (P25024 whole entry): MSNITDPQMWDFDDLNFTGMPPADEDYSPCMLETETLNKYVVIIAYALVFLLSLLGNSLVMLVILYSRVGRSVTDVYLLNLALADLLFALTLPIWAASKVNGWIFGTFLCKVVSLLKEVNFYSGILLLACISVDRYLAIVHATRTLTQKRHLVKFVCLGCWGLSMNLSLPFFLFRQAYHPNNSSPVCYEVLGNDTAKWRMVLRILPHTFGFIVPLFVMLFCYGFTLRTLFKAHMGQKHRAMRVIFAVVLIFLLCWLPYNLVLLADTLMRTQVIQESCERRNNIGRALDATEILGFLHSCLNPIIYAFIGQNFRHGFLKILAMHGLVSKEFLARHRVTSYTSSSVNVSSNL
T2 sequence (Q9HB89 whole entry): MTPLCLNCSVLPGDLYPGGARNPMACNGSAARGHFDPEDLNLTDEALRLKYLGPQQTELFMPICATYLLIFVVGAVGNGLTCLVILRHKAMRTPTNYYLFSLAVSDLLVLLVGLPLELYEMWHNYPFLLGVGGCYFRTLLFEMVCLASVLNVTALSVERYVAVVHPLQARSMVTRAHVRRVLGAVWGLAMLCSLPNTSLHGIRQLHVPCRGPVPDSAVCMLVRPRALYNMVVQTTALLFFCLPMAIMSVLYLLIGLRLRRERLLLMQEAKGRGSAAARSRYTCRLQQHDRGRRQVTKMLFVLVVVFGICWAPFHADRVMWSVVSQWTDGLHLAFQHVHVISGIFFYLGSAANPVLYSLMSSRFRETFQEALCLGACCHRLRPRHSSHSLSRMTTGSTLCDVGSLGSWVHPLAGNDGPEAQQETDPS
T25 sequence (Q15077 whole entry): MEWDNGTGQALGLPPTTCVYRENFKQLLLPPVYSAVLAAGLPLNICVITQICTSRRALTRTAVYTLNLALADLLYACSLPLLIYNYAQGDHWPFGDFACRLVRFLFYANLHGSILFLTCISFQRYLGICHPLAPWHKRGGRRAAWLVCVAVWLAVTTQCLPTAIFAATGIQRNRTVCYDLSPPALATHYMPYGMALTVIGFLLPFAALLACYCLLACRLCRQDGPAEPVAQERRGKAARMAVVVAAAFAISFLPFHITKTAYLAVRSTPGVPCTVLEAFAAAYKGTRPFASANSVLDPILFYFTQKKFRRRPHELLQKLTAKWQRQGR
Sequence of AVPR1A (P37288 whole entry): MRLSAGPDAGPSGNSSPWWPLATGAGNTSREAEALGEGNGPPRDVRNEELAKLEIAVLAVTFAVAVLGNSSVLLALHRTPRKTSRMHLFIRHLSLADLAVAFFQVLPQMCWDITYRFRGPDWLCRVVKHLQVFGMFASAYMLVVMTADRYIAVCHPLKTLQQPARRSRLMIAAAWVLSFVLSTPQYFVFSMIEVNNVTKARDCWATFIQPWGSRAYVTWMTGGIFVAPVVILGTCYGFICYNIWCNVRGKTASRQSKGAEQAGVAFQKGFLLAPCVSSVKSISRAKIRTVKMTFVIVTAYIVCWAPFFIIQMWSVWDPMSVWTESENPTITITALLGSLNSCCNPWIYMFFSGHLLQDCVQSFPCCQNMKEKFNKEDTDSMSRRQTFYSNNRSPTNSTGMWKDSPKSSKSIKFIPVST
T11 sequence (P25105 whole entry): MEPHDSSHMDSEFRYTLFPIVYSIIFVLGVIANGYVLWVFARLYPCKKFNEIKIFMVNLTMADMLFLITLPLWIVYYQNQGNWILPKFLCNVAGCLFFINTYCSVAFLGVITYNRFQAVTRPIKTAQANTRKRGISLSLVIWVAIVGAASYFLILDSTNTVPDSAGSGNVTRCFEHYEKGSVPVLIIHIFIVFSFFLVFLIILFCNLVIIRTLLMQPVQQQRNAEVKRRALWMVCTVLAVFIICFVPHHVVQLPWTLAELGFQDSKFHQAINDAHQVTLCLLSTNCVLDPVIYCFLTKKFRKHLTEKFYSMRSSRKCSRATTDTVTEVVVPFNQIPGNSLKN
T33 sequence (P28222 whole entry): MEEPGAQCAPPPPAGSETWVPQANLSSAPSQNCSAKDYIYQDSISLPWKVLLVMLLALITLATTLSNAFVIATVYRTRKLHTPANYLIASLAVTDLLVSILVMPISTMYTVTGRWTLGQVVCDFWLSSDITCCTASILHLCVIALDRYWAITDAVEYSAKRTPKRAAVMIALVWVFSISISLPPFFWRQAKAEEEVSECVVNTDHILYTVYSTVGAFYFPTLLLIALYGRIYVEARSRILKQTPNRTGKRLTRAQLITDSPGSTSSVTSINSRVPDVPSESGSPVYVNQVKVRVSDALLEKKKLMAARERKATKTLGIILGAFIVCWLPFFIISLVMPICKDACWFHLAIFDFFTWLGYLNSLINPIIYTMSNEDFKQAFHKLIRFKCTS
Sequence of CALCR-RAMP3 (P30988 25-474): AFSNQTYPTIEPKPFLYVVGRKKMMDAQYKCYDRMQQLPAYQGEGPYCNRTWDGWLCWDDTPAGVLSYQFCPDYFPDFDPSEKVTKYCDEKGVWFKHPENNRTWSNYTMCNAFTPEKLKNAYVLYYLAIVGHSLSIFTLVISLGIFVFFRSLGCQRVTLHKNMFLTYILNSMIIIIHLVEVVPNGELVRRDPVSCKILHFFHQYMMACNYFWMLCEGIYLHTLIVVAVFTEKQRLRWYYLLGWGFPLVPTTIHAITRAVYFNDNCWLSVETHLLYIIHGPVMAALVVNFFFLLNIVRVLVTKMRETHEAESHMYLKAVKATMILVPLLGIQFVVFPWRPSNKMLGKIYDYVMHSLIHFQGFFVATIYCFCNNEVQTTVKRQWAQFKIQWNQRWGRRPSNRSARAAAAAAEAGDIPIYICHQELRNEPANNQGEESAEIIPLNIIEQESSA
Sequence of CALCR-RAMP3 (O60896 24-148 partner): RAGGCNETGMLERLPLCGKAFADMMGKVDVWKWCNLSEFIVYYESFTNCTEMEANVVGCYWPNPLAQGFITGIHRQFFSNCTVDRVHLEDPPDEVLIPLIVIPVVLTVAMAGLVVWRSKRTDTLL
T20 sequence (P47872 23-440): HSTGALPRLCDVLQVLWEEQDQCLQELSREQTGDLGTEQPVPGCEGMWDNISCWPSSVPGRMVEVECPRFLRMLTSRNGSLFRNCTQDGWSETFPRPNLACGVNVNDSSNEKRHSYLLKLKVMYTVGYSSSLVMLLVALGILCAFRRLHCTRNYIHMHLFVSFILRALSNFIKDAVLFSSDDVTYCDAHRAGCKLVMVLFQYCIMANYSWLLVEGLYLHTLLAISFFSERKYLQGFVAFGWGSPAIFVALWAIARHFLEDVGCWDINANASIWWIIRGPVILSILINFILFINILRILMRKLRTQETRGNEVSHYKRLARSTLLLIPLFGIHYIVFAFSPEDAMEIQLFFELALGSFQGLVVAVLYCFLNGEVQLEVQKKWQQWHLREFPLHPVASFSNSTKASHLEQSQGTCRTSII
T4 sequence (P20309 whole entry): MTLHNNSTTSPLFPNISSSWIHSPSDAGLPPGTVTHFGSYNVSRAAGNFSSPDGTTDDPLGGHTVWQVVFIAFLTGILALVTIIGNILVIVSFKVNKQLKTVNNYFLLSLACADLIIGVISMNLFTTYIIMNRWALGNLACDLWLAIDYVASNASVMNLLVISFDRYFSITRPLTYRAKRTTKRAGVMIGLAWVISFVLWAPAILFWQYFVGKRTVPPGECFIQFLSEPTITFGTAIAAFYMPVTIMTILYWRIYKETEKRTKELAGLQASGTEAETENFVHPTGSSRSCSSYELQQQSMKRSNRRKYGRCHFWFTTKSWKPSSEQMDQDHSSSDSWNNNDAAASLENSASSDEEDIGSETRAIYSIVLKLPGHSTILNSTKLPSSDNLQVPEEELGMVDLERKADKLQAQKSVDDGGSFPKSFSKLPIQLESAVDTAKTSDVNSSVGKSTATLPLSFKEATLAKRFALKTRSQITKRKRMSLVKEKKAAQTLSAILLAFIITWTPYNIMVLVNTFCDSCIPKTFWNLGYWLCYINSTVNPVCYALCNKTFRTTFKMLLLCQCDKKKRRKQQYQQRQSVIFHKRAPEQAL

- inhibition at 20 µM (AGTRL1): 6.8%
- inhibition at 20 µM (HTR1E): 26.8%
- inhibition at 20 µM (NMU1R): 30.1%
- inhibition at 20 µM (FFAR1): 42%
- inhibition at 20 µM (CHRM3): 59.9%
- inhibition at 20 µM (EDG6): 19.6%
- inhibition at 20 µM (PTGER4): 36.5%
- inhibition at 20 µM (C5aR1): 1.4%
- inhibition at 20 µM (NMBR): 39.7%
- inhibition at 20 µM (PTGFR): 43.1%
- inhibition at 20 µM (PRLHR): 46.6%
- inhibition at 20 µM (CXCR4): 43.8%
- inhibition at 20 µM (PTAFR): 14.3%
- inhibition at 20 µM (OXTR): 34.2%
- inhibition at 20 µM (AVPR1A): 48.5%
- inhibition at 20 µM (CHRM2): 36.7%
- inhibition at 20 µM (HRH1): 3%
- inhibition at 20 µM (CHRM1): 21.8%
- inhibition at 20 µM (CCR2): -1.7%
- inhibition at 20 µM (MC3R): 19.7%
- inhibition at 20 µM (MC1R): 10.2%
- inhibition at 20 µM (CALCRL-RAMP1): 31.2%
- inhibition at 20 µM (HTR1F): 41.7%
- inhibition at 20 µM (SCTR): 16.9%
- inhibition at 20 µM (HRH2): 24.1%
- inhibition at 20 µM (EDNRB): 23%
- inhibition at 20 µM (CCR1): 65.7%
- inhibition at 20 µM (P2RY2): -1.1%
- inhibition at 20 µM (P2RY6): 1.2%
- inhibition at 20 µM (EDG1): 33.1%
- inhibition at 20 µM (BRS3): 15.9%
- inhibition at 20 µM (CALCRL-RAMP2): 13.6%
- inhibition at 20 µM (CXCR6): 33.1%
- inhibition at 20 µM (TACR2): 59.3%
- inhibition at 20 µM (OXER1): 18.1%
- inhibition at 20 µM (CHRM5): 31.6%
- inhibition at 20 µM (GALR1): 5.7%
- inhibition at 20 µM (EDNRA): 30.7%
- inhibition at 20 µM (HTR1B): 33.9%
- inhibition at 20 µM (CALCR-RAMP3): 3.1%
- inhibition at 20 µM (CCR4): 58.9%
- inhibition at 20 µM (CXCR1): 15.3%
SMILES: CC(=O)N[C@@H](CCCC#C/C=C/Cl)CCCCCCC(Cl)Cl [Compound 4, taveuniamide F]

Reference: paper PMC10817531, “Chlorinated Enyne Fatty Acid Amides from a Marine Cyanobacterium: Discovery of Taveuniamides L-M and Pharmacological Characterization of Taveuniamide F as a GPCR Antagonist with CNR1 Selectivity” (Marine Drugs, 2023)
